In patent US20250313563A1, “GLYCOGEN SYNTHASE KINASE 3 INHIBITORS AND USES THEREOF” (The Broad Institute, Inc., priority 2022, published 2025):
Like-named read-outs stand apart in the source and are kept apart here.

Key:
[1] = molecular target: GSK3b (GST-full length GSK3b) (Homo sapiens (Human), UniProt P49841); test: GSK3b TR-FRET kinase assay; assay type: biochemical
Summary of the method: (§1)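 Full-length GST-tagged human enzyme (1 nM) is exposed to test compound for 30 min before substrates are added. Phosphorylation of a primed biotinylated glycogen synthase peptide proceeds 100 min at room temperature at low ATP (4 μM α; 2 μM β) or high ATP (1 mM). Product is quantified by TR-FRET.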

[2] = molecular target: GSK3α (GST-full length GSK3α) (Homo sapiens (Human), UniProt P49840); test: GSK3α TR-FRET kinase assay; assay type: biochemical
GSK3α (GST-full length GSK3α), sequence (P49840 whole entry): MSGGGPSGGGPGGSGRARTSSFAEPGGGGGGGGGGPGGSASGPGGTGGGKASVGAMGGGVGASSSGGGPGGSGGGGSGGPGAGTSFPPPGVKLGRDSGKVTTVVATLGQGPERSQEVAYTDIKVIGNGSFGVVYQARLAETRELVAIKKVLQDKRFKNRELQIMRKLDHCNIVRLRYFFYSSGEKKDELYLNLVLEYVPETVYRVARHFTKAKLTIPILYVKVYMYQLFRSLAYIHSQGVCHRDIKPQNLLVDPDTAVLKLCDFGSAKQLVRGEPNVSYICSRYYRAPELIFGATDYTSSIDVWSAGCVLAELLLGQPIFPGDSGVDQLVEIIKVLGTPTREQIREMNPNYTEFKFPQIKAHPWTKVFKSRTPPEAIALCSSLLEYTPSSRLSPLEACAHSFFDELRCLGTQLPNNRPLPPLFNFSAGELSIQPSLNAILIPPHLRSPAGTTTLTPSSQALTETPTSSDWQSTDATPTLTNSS
Summary of the method: as §1

[3] = 1 nM GSK3b, 2 μM ATP, 30 minute preincubation, Table 16, read-out: GSK3-B TR-FRET BIOCHEMICAL (TR-FRET)
[4] = 1 nM GSK3α, 4 μM ATP, 30 minute preincubation, Table 16, read-out: GSK3-A TR-FRET BIOCHEMICAL (TR-FRET)
[5] = 1 nM GSK3b, 2 μM ATP, 30 minute preincubation, Table 16, read-out: GSK3-B TR-FRET BIOCHEMICAL (TR-FRET), IC50
[6] = 1 nM GSK3α, 4 μM ATP, 30 minute preincubation, Table 16, read-out: GSK3-A TR-FRET BIOCHEMICAL (TR-FRET), IC50
[7] = 1 nM GSK3b, 2 μM ATP, 30 minute preincubation, read-out: GSK3-B TR-FRET BIOCHEMICAL (TR-FRET), IC50
[8] = 1 nM GSK3α, 4 μM ATP, 30 minute preincubation, read-out: GSK3-A TR-FRET BIOCHEMICAL (TR-FRET), IC50
[9] = read-out: GSK3-B (TR-FRET 1 mM ATP), GMean, IC50, 1 mM ATP, geometric mean
[10] = read-out: GSK3-A (TR-FRET 1 mM ATP), GMean, IC50, 1 mM ATP, geometric mean

GSK3b (GST-full length GSK3b), sequence (P49841 whole entry): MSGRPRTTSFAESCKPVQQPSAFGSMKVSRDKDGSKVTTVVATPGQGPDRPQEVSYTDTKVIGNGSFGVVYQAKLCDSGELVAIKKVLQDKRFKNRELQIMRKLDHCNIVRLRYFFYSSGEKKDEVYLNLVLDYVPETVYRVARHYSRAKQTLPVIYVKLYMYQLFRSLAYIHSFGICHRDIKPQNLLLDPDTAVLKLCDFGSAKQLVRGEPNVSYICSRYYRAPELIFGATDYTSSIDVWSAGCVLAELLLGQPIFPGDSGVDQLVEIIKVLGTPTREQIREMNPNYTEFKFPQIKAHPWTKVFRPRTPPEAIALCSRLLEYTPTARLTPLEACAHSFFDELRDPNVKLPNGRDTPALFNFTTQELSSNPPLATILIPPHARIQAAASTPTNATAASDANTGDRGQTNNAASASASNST

CC[C@@]1(c2cccc(C(F)(F)F)c2)C2=C(CNC2=O)Nc2n[nH]cc21 [Compound 917157]
IC50 [1, 3]: > 5000 nM | IC50 [2, 4]: > 5000 nM

CCC1(c2cccc(C(F)(F)F)c2)C2=C(CNC2=O)Nc2n[nH]cc21 (stereo not shown) [Compound 917158]
IC50 [1, 3]: 1000 to 5000 nM | IC50 [2, 4]: 100 to 1000 nM

CCC1(c2cccc(C(F)(F)F)c2)C2=C(CN(Cc3ccccc3)C2=O)Nc2n[nH]cc21 (stereo not shown) [Compound 917159]
IC50 [1, 3]: 100 to 1000 nM | IC50 [2, 4]: ≤ 100 nM

C[C@@H]1C[C@]2(CCN1S(=O)(=O)c1ccn(C)n1)C1=C(CC(C)(C)CC1=O)Nc1n[nH]cc12 [Compound 917160]
IC50 [1, 3]: 100 to 1000 nM | IC50 [2, 4]: 100 to 1000 nM

C[C@@H]1C[C@@]2(CCN1S(=O)(=O)c1ccn(C)n1)C1=C(CC(C)(C)CC1=O)Nc1n[nH]cc12 [Compound 917161]
IC50 [1, 3]: ≤ 100 nM | IC50 [2, 4]: ≤ 100 nM

CC[C@]1(c2cccc(N3CCCC[C@H]3C)c2)C2=C(CC(C)(C)CC2=O)Nc2n[nH]cc21 [Compound 917210]
IC50 [1, 5]: > 5000 nM | IC50 [2, 6]: > 5000 nM

CCC1(c2cccc(Oc3cncnc3)c2)C2=C(CC(C)(C)CC2=O)Nc2n[nH]cc21 (stereo not shown) [Compound 917212]
IC50 [1, 5]: 100 to 1000 nM | IC50 [2, 6]: ≤ 100 nM

CC1(C)CC(=O)C2=C(C1)Nc1n[nH]cc1C21Cc2ccccc21 (stereo not shown) [Compound 917226]
IC50 [1, 5]: 100 to 1000 nM | IC50 [2, 6]: 100 to 1000 nM

CC1(C)CC(=O)C2=C(C1)Nc1n[nH]cc1C21COC2(CN(C(=O)c3ccccc3)C2)C1 (stereo not shown) [Compound 917231]
IC50 [1, 7]: ≤ 100 nM | IC50 [2, 8]: ≤ 100 nM

CC1(C)CC(=O)C2=C(C1)Nc1n[nH]cc1C21COC2(CN(C(=O)C3CCCC3)C2)C1 (stereo not shown) [Compound 917232]
IC50 [1, 7]: ≤ 100 nM | IC50 [2, 8]: ≤ 100 nM

CC[C@@]1(c2cccc(C(F)(F)F)c2)C2=C(CCN(C)C2=O)Nc2n[nH]cc21 [Compound 917282]
IC50 [1, 7]: 100 to 1000 nM | IC50 [2, 8]: ≤ 100 nM

CC[C@]1(c2cccc(C(F)(F)F)c2)C2=C(CCN(C)C2=O)Nc2n[nH]cc21 [Compound 917283]
IC50 [1, 7]: > 5000 nM | IC50 [2, 8]: > 5000 nM

CCC1(c2cccc(C(F)(F)F)c2)C2=C(CC(c3ccccc3)NC2=O)Nc2n[nH]cc21 (stereo not shown) [Compound 917284]
IC50 [1, 7]: 1000 to 5000 nM | IC50 [2, 8]: 100 to 1000 nM

CCC1(c2cccc(-c3ccnc(C)c3)c2)C2=C(CC(C)(C)CC2=O)Nc2n[nH]c(C(F)(F)F)c21 (stereo not shown) [Compound 917289]
IC50 [1, 5]: 1000 to 5000 nM | IC50 [1, 9]: > 5000 nM | IC50 [2, 6]: 100 to 1000 nM | IC50 [2, 10]: > 5000 nM

CCC1(c2cccc(-c3ccncc3)c2)C2=C(CC(C)(C)CC2=O)Nc2n[nH]c(C(F)(F)F)c21 (stereo not shown) [Compound 917292]
IC50 [1, 5]: 100 to 1000 nM | IC50 [1, 9]: > 5000 nM | IC50 [2, 6]: 100 to 1000 nM | IC50 [2, 10]: > 5000 nM

CCC1(c2cccc(C(F)(F)F)c2)C2=C(CN(C)C2=O)Nc2n[nH]cc21 (stereo not shown) [Compound 917294]
IC50 [1, 3]: 1000 to 5000 nM | IC50 [2, 4]: 100 to 1000 nM

CCC1(c2cccc(C(F)(F)F)c2)C2=C(Nc3n[nH]cc31)C(C)NC2=O (stereo not shown) [Compound 917295]
IC50 [1, 3]: 1000 to 5000 nM | IC50 [2, 4]: 100 to 1000 nM

CC[C@@]1(c2cccc(C(F)(F)F)c2)C2=C(Nc3n[nH]cc31)C(C)(C)N(C)C2=O [Compound 918251]
IC50 [1, 3]: > 5000 nM | IC50 [2, 4]: > 5000 nM

COC(=O)C1CCC2(CC1)C1=C(CC(C)(C)CC1=O)Nc1n[nH]cc12 (stereo not shown) [Compound 918270]
IC50 [1, 3]: 100 to 1000 nM | IC50 [2, 4]: 100 to 1000 nM

CCC1(c2cccc(S(=O)(=O)CCOC)c2)C2=C(CC(C)(C)CC2=O)Nc2n[nH]cc21 (stereo not shown) [Compound 918271]
IC50 [1, 5]: ≤ 100 nM | IC50 [2, 6]: ≤ 100 nM

CCC1(c2cccc(N(C)c3ccc(C)nc3)c2)C2=C(CC(C)(C)CC2=O)Nc2n[nH]cc21 (stereo not shown) [Compound 918272]
IC50 [1, 5]: 100 to 1000 nM | IC50 [2, 6]: 100 to 1000 nM

CCC1(c2cccc(S(=O)(=O)C3CCCCC3)c2)C2=C(CC(C)(C)CC2=O)Nc2n[nH]cc21 (stereo not shown) [Compound 918273]
IC50 [1, 5]: ≤ 100 nM | IC50 [2, 6]: ≤ 100 nM

CCC1(c2cccc(N(C)c3cccc(F)n3)c2)C2=C(CC(C)(C)CC2=O)Nc2n[nH]cc21 (stereo not shown) [Compound 918274]
IC50 [1, 5]: 100 to 1000 nM | IC50 [2, 6]: ≤ 100 nM

CC1(C)CC(=O)C2=C(C1)Nc1n[nH]cc1C21CN(S(=O)(=O)C2CCCCC2)C1 [Compound 918275]
IC50 [1, 3]: ≤ 100 nM | IC50 [2, 4]: ≤ 100 nM

COc1cccc(S(=O)(=O)N2CC3(C2)C2=C(CC(C)(C)CC2=O)Nc2n[nH]cc23)c1 [Compound 918276]
IC50 [1, 3]: ≤ 100 nM | IC50 [2, 4]: ≤ 100 nM

COC(=O)C1CCC2(CC1)C1=C(CC(C)(C)CC1=O)Nc1n[nH]cc12 (stereo not shown) [Compound 918277]
IC50 [1, 3]: 100 to 1000 nM | IC50 [2, 4]: ≤ 100 nM

CC1(C)CC(=O)C2=C(C1)Nc1n[nH]cc1C21CN(S(=O)(=O)c2cccc(F)c2)C1 [Compound 918278]
IC50 [1, 3]: ≤ 100 nM | IC50 [2, 4]: ≤ 100 nM

CCC1(c2cccc(N3CCOc4ncccc43)c2)C2=C(CC(C)(C)CC2=O)Nc2n[nH]cc21 (stereo not shown) [Compound 918279]
IC50 [1, 5]: ≤ 100 nM | IC50 [2, 6]: ≤ 100 nM

CCC1(c2cccc(N3CCOc4ccccc43)c2)C2=C(CC(C)(C)CC2=O)Nc2n[nH]cc21 (stereo not shown) [Compound 918280]
IC50 [1, 5]: ≤ 100 nM | IC50 [2, 6]: ≤ 100 nM

CCC1(c2cccc(-c3ccnc(C)c3F)c2)C2=C(CC(C)(C)CC2=O)Nc2n[nH]cc21 (stereo not shown) [Compound 918281]
IC50 [1, 5]: 100 to 1000 nM | IC50 [2, 6]: ≤ 100 nM

CC1(C)CC2=C(C(=O)[C@H]1F)[C@]1(CC[C@H](C(F)(F)F)CC1)c1c[nH]nc1N2 [Compound 918282]
IC50 [1, 3]: ≤ 100 nM | IC50 [2, 4]: ≤ 100 nM

CC1(C)CC2=C(C(=O)[C@@H]1F)[C@]1(CC[C@H](C(F)(F)F)CC1)c1c[nH]nc1N2 [Compound 918283]
IC50 [1, 3]: ≤ 100 nM | IC50 [2, 4]: ≤ 100 nM

CC1(C)CC(=O)C2=C(Nc3n[nH]cc3[C@]23CC[C@@H](C(F)(F)F)CC3)[C@@H]1F [Compound 918284]
IC50 [1, 3]: ≤ 100 nM | IC50 [2, 4]: ≤ 100 nM

CC1(C)CC(=O)C2=C(Nc3n[nH]cc3[C@]23CC[C@@H](C(F)(F)F)CC3)[C@H]1F [Compound 918285]
IC50 [1, 3]: 100 to 1000 nM | IC50 ([1]; GSK3-B (TR-FRET 1 mM ATP), GMean, IC50, 1 mM ATP, geometric mean): > 5000 nM | IC50 [2, 4]: ≤ 100 nM | IC50 ([2]; GSK3-A (TR-FRET 1 mM ATP), GMean, IC50, 1 mM ATP, geometric mean): 1000 to 5000 nM

C[C@@H]1C[C@]2(CCN1S(C)(=O)=O)C1=C(CC(C)(C)CC1=O)Nc1n[nH]cc12 [Compound 918315]
IC50 [1, 3]: 100 to 1000 nM | IC50 [2, 4]: 100 to 1000 nM

C[C@@H]1C[C@@]2(CCN1S(C)(=O)=O)C1=C(CC(C)(C)CC1=O)Nc1n[nH]cc12 [Compound 918316]
IC50 [1, 3]: 100 to 1000 nM | IC50 [2, 4]: ≤ 100 nM

CCC1(c2cccc(N3CCCC3C)c2)C2=C(CC(C)(C)CC2=O)Nc2n[nH]cc21 (stereo not shown) [Compound 918321]
IC50 [1, 5]: ≤ 100 nM | IC50 [2, 6]: ≤ 100 nM

CC[C@]1(c2cccc(N3CCC[C@H]3C)c2)C2=C(CC(C)(C)CC2=O)Nc2n[nH]cc21 [Compound 918322]
IC50 [1, 5]: > 5000 nM | IC50 [2, 6]: > 5000 nM

CCC1(c2cccc(N3CC(C)C(C)C3)c2)C2=C(CC(C)(C)CC2=O)Nc2n[nH]cc21 (stereo not shown) [Compound 918326]
IC50 [1, 5]: 100 to 1000 nM | IC50 [2, 6]: 100 to 1000 nM

CCC1(c2cccc(N3CC(C)C(C)C3)c2)C2=C(CC(C)(C)CC2=O)Nc2n[nH]cc21 (stereo not shown) [Compound 918327]
IC50 [1, 5]: > 5000 nM | IC50 [2, 6]: 1000 to 5000 nM

CCN(c1cccc(C2(CC)C3=C(CC(C)(C)CC3=O)Nc3n[nH]cc32)c1)c1ncccn1 (stereo not shown) [Compound 919840]
IC50 [1, 5]: ≤ 100 nM | IC50 [2, 6]: ≤ 100 nM

CC1(C)CC(=O)C2=C(C1)Nc1n[nH]cc1[C@]21CCOC(C)(C)C1 [Compound 924298]
IC50 [1, 5]: 1000 to 5000 nM | IC50 [2, 6]: 1000 to 5000 nM

CC1(C)CC(=O)C2=C(C1)Nc1n[nH]cc1[C@@]21CCOC(C)(C)C1 [Compound 924299]
IC50 [1, 3]: 100 to 1000 nM | IC50 [2, 4]: 100 to 1000 nM

CC1(C)CC(=O)C2=C(C1)Nc1n[nH]cc1[C@@]21CCOC2(CCOCC2)C1 [Compound 924306]
IC50 [1, 7]: 100 to 1000 nM | IC50 [2, 8]: 100 to 1000 nM
